Emax and EC50 data for 6 compounds are collected here from patent publication US20070259888A1, “Novel Compounds” (ASTRAZENECA AB, priority 2006, published 2007).

The target of assay [1] is T1, human M2 receptor (human Muscarinic receptor subtype 2) (Homo sapiens, UniProt P08172).
T1 construct: purchased Perkin-Elmer RBHM2M; host or cells: Chinese hamster ovary cells (CHO), membranes
T1 sequence (P08172 1-466): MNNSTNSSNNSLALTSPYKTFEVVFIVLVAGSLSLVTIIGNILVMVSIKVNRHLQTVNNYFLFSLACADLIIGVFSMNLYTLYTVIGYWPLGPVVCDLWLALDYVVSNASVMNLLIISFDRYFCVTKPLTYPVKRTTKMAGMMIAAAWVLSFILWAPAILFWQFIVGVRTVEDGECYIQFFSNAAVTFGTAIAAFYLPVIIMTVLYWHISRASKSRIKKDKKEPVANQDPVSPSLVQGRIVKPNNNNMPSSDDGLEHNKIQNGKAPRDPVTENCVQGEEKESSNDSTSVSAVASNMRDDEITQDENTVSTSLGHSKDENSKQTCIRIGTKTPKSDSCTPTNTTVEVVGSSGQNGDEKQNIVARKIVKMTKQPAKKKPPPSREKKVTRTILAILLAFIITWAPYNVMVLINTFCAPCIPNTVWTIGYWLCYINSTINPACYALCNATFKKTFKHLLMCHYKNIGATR
Put plainly: hM2 receptor GTPγS binding. It is filed as biochemical. Conditions: CHO membranes expressing hM2, GTPγ35S binding; for EC50: read-out: hM2_EC50. As for the experimental part:
hM2 Receptor GTPyS Binding
Membranes produced from Chinese hamster ovary cells (CHO) expressing the cloned human M2 receptor (human Muscarinic receptor subtype 2, gene bank access NM_000739), were obtained from Perkin-Elmer (RBHM2M). The membranes were thawed at 37° C., passed 3 times through a 23-gauge blunt-end needle, diluted in the GTPγS binding buffer (50 mM Hepes, 20 mM NaOH, 100 mM NaCl, 1 mM EDTA, 5 mM MgCl2, pH 7.4, 100 μM DTT). The EC50, IC50 and Emax of the compounds of the invention were evaluated from 10-point dose-response curves (three fold concentration range) done in 60 μl in 384-well non-specific binding surface plate (Corning). Ten microliters from the dose-response curves plate (5× concentration) were transferred to another 384 well plate containing the following: 10 μg of hM2 membranes, 500 μg of Flashblue beads (Perkin-Elmer) and GDP in a 25 μl volume. An additional 15 μl containing 3.3× (55000 dpm) of GTPγ^35S (0.4 nM final) were added to the wells resulting in a total well volume of 50 μl. Basal and maximal stimulated GTPγ^35S binding was determined in absence and presence of 30 μM of acetylcholine agonist. The membranes/beads mix were pre-incubated for 15 minutes at room temperature with 25 μM GDP prior to distribution in plates (12.5 μM final). The reversal of acetylcholine-induced stimulation (2 μM final) of GTPγ^35S binding was used to assay the antagonist properties (IC50) of the compounds. The plates were incubated for 60 minutes at room temperature with shaking, then centrifuged at 2000 rpm for 5 minutes. The radioactivity (cpm) was counted in a Trilux (Perkin-Elmer).
Values of EC50, IC50 and Emax were obtained using sigmoidal fits of a non-linear curve-fitting program (XLfit version 5.0.6 from ID Business Solutions Limited, Guildford, UK) of percent-stimulated GTPγ^35S binding vs. log (molar ligand).
All EC50 and IC50 values are reported as geometric means of ‘n’ independent experiments. […] The IC50 was the concentration of the compound of the invention at which 50% inhibition of acetylcholine GTPγ^35S binding stimulation has been observed.

Assay [2] deals with T2, hM1 (human Muscarinic receptor subtype 1) (Homo sapiens, UniProt P11229).
T2 construct: expressed in transfected cells; host or cells: CHO cells (chinese hamster ovary cells, ATCC)
T2 sequence (P11229 1-460): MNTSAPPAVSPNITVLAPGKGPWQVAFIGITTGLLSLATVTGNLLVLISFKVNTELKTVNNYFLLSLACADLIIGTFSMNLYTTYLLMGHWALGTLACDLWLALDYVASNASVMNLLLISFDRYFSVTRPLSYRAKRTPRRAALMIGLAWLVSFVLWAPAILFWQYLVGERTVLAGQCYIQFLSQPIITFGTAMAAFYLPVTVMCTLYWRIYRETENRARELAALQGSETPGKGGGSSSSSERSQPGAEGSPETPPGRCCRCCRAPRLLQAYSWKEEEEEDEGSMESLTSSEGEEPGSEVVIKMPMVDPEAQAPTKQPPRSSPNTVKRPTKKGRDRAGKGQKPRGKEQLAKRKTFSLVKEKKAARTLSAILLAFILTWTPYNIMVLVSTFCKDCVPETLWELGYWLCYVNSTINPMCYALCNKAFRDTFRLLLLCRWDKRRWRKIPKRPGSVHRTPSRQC
The experiment in a line: Human M1 calcium mobilization FLIPR assay. The assay is classed as cell-based. Conditions: CHO cells expressing hM1, FLIPR; for EC50: read-out: hM1EC50; for Emax: read-out: hM1Emax. As for the experimental part: The compound activity in the present invention (EC50 or IC50) was measured using a 384 plate-based imaging assay that monitors drug induced intracellular Ca^2+ release in whole cells. Activation of hM1 (human Muscarinic receptor subtype 1, gene bank access NM_000738), rM1 (rat Muscarinic receptor subtype 1, gene bank access NM_080773), hM3 (human Muscarinic receptor subtype 3, gene bank access NM_000740NM_000740) and hM5 (human Muscarinic receptor subtype 5, gene bank access NM_0121258) receptors expressed in CHO cells (chinese hamster ovary cells, ATCC) was quantified in a Molecular Devices FLIPR II™ instrument as an increase in fluorescent signal. Inhibition of hM3 and hM5 by compounds was determined by the decrease in fluorescent signal in response to 2 nM acetylcholine activation.
CHO cells were plated in 384-black polylysine coated plate (Costar) at 8000 cells/well/50 μl for 24 hours or 4000 cells/well for 48 hours in a humidified incubator (5% CO2 and 37° C.) in DMEM/F12 medium without selection agent. Prior to the experiment the cell culture medium was removed from the plates by inversion. A loading solution of 30 μl of Hank's balanced salt solution, 10 mM Hepes and 2.5 mM Probenicid at Ph 7.4 (Cat no. 311-520-VL, Wisent) with 2 μM calcium indicator dye (FLUO-3AM, Molecular Probes F14202) was added to each well. Plates were incubated at 37° C. for 60 minutes prior to start the experiment. The incubation was terminated by washing the cells four times in assay buffer, leaving a residual 25 μl buffer per well. Cell plates were then transferred to the FLIPR, ready for compound additions.
The day of experiment, acetylcholine and compounds were diluted in three-fold concentration range (10 points serial dilution) for addition by FLIPR instrument. For all calcium assays, a baseline reading was taken for 30 seconds followed by the addition of 12.5 μl (25 μl for hM1 and rM1) of compounds, resulting in a total well volume of 37.5 μl (50 μl for hM1 and rM1). Data were collected every 1.6 seconds for 300 seconds. For hM3 and hM5 an additional 12.5 μl of acetylcholine (2 nM final) was added at 300 seconds. After this addition of acetylcholine (producing a final volume of 50 μl), the FLIPR continued to collect data every 2 seconds for 240 seconds. The fluorescence emission was read using filter 1 (emission 520-545 nm) by the FLIPR on board CCD camera.
Calcium mobilization output data were calculated as the maximal relative fluorescence unit (RFU) minus the minimal value for both compound and agonist reading frame (except for hM1 and rM1 using only the maximal RFU). Data were analyzed using sigmoidal fits of a non-linear curve-fitting program (XLfit version 5.0.6 from ID Business Solutions Limited, Guildford, UK). All EC50 and IC50 values are reported as geometric means of ‘n’ independent experiments.
For orientation: Calcium flux is commonly read through the fluorescence of an indicator in the cells.

In the case of `CCOC[C@@H]1CCCN(C[C@H]2CCCC[C@@H]2NC(=O)c2ccccc2)C1` [N-((1S,2R)-2-{[(3R)-3-(ethoxymethyl)piperidin-1-yl]methyl}cyclohexyl)benzamide], in assay [1], the Emax was determined as 34% and the EC50 worked out at 1910 nM. For the same compound, in assay [2], the EC50 was 119 nM and the Emax was 74%.
The corresponding values for `CCOC[C@@H]1CCCN(C[C@H]2CCCC[C@@H]2NC(=O)C2CCc3ccccc3O2)C1` (stereo partly drawn) [N-((1S,2R)-2-{[(3R)-3-(ethoxymethyl)piperidin-1-yl]methyl}cyclohexyl)chromane-2-carboxamide] are 54%, 570 nM, 55 nM and 98%.
On the same counts, the results for `CCOC[C@@H]1CCCN(C[C@H]2CCCC[C@@H]2NC(=O)C2CCCCC2)C1` [N-((1S,2R)-2-{[(3R)-3-(ethoxymethyl)piperidin-1-yl]methyl}cyclohexyl)cyclohexanecarboxamide] are 30%, 1080 nM, 157 nM and 75%.
As for `O=C(N[C@H]1CCCC[C@@H]1CN1CCCCCC1)c1ccc(-n2cccn2)cc1` [N-[(1S,2R)-2-(azepan-1-ylmethyl)cyclohexyl]-4-(1H-pyrazol-1-yl)benzamide], in assay [1], the Emax was above 12% and the EC50 is above 30000 nM. Besides, in assay [2], the EC50 is 130 nM and the Emax was determined as 70%.
The corresponding values for `O=C(N[C@H]1CCCC[C@@H]1CN1CCCCC1)c1ccc(-n2cccn2)nc1` [N-[(1S,2R)-2-(piperidin-1-ylmethyl)cyclohexyl]-6-(1H-pyrazol-1-yl)nicotinamide] are 0%, above 30000 nM, 26 nM and 82%.
The corresponding values for `C=CCOC[C@@H]1CCCN(C[C@H]2CCCC[C@@H]2NC(=O)c2ccc(-n3ccnc3)nc2)C1` [N-[(1S,2R)-2-({(3R)-3-[(allyloxy)methyl]piperidin-1-yl}methyl)cyclohexyl]-6-(1H-imidazol-1-yl)nicotinamide] are 22%, 216 nM, 5 nM and 95%.
